In US20250243180A1, “TARGETED PROTEIN DEGRADATION” (Monte Rosa Therapeutics AG, priority 2023, published 2025):

What was measured:
NEK7 [1] = test: NEK7 degradation in the brain of NHP (JESS); type: in vivo; details: oral 30 mg/kg for 7 days; for Average percent NEK7/β-actin in brain, relative to vehicle: 24 h after final dose
Description: Naïve NHP were orally administered with 7 consecutive daily dose of Compound 14 at 30 mg/kg, n=4 per dose group, 2 male and 2 female. Compound formulation was prepared on the day of administration in 0.5% methyl cellulose (4000 cps) in water and animals were fed twice a day; water was available ad libitum. Plasma collected posted dose on Day 1 and Day 7 were analyzed using a non GLP LC/MS/MS bioanalytical method to evaluate the compound concentration. Brain samples were harvested 24 h after final dose. Lysates for different brain regions (hippocampus, frontal cortex, and cerebellum) were prepared in M-PER lysis buffer and diluted at total protein concentration of 0.4 mg/mL in 0.1× sample buffer (12-230 kDa detection module; Protein Simple). The anti-NEK7 rabbit mAb (Abcam #AB133514) was used at 1:100 and anti-β-actin rabbit mAb (CST #5125) was used at 1:500. Samples were probed for NEK7 and β-actin protein levels by JESS, and quantified relative to vehicle control.
In Table 11, NEK7 protein degradation in brains of NHP following oral dosing of Compound 14 is reported. NHP received daily oral administration of 30 mg/kg of Compound 14 or vehicle for 7 days. For Compound 14 group, n=4 (two male and two female); for vehicle, n=2; samples taken 24 h post-final dose. Brains were harvested 24 h after final dose, sectioned by region (hippocampus, frontal cortex, cerebellum), and analyzed for NEK7 and beta-actin protein levels by JESS. The average percent of NEK7 was quantified by brain region and normalized to β-actin.

Caspase-1 activity = Caspase-1 activity in human monocyte-derived macrophages, LPS/MSU stimulation; type: cell-based
Description: Human monocytes were enriched and isolated from a buffy coat of whole blood with a RosetteSep™ Human Monocyte Enrichment Cocktail (Cat.No. 15068, StemCell) and Ficoll-Plaque PLUS (Cat.No. H8889, Sigma). Monocytes were differentiated into macrophages by treatment with 100 ng/mL M-CSF for 6 days at 37° C., 5% CO2. Differentiated macrophages were seeded overnight (50,000 cells/well) in 100 μL of medium in a 96-well white-bottom plate at 37° C., 5% CO2. Cells were treated with a concentration range of MGD or the NLRP3 inhibitor selnoflast (Cat.No. HY-132831, MedChemExpress) for 24 h prior to stimulation with monosodium urate crystals (MSU). Macrophages were stimulated with […] lipopolysaccharide (LPS) and 0.2 mg/mL MSU for 6 h. Medium of stimulated macrophages were collected and assayed for caspase-1 activity directly (Promega G9951) as well as IL-1β (Promega W6010), according to manufacturer's instructions.
(a, b) Human monocyte-derived macrophages pre-treated with a dose-response of Compound 14 or selnoflast (NLRP3 inhibitor) for 24 h and stimulated with a combination of lipopolysaccharide (LPS) and monosodium urate crystals (MSU) for 6 h prior to supernatant collection. Monocytes were isolated from eight human donors. Caspase-1 (a) and IL-1β (b) in the supernatant are measured and data are expressed as percentage relative to mean values of DMSO conditions for each donor (technical triplicates). Means of eight donors are plotted and analyzed using a four-parameter logistic regression model.

[2] = Plasma concentration in NHP, multiple-dose study 5 mg/kg oral; type: in vivo, cynomolgus monkeys; details: both sexes, cynomolgus monkey
Description: Non-naïve male and female non-human primate (NHP) cynomolgus monkeys were orally administered with 5 consecutive daily doses of Compound 14 at 5 mg/kg, n=2 per dose group, 1 male and 1 female. Compound formulation was prepared on the day of administration in 0.5% methyl cellulose (4000 cps) in water and animals were fasted overnight. Plasma collected post dose were analyzed using a non GLP LC/MS/MS bioanalytical method to evaluate the compound concentration. Whole blood collected post dose were processed to PBMC and were analyzed using western blot method. Plasma pharmacokinetics and PMBC pharmacodynamics were assessed longitudinally throughout dosing and following dosing cessation.
In Table 7, plasma was isolated 6 h after final dose (dosed once or over five consecutive days), n=2. Plasma collected post dose were analyzed using a non GLP LC/MS/MS bioanalytical method to evaluate the compound concentration.

NEK7 [3] = test: NEK7 degradation in spleen and PBMC in rabbit gout model (JESS); type: in vivo; details: rabbits, 10 mg/kg QD×7, harvested 2 h after the final dose
Description: MSU crystals were prepared by dissolving uric acid (Aladdin, cat #U105582) in boiling water (1 g in 200 mL with 6 mL of 1 N NaOH). PH value was adjusted to 7.2 by HCl. The solution was stirred and cooled to room temperature and stored at 4° C. overnight. The precipitate was filtered with filter paper and dried under low heat to obtain MSU crystals. New Zealand White rabbits received an intra-articular injection of 1 mL of MSU crystals (50 mg/mL) into both knees (MSU group) or PBS (as vehicle, control group). n=10 for MSU groups; n=6 for PBS group. […]
On Day 7, tissue was harvested 2 hours post final dose. […] Lysates were prepared in M-PER lysis buffer and protein concentration was measured using Pierce rapid gold BCA protein Assay Kit (Thermo Fisher) according to manufacturer's protocol. […]
(a) To determine NEK7 degradation, spleens and peripheral blood mononuclear cells (PBMC) were analyzed by JESS for NEK7 and normalized to α-Tubulin from five representative animals. (b) The degree of joint swelling was determined by caliper measurements at the indicated time points. (c) Rabbit bone tissue sections were stained and quantified for anti-CD31 immunohistochemistry. Results expressed as mean±SEM. […]

Cc1cnc(C(C)(C)C(=O)NCc2cc(Cl)c(C3CCC(=O)NC3=O)c(Cl)c2)nc1 (stereo not shown) [Compound 14, N-(3,5-dichloro-4-(2,6-dioxopiperidin-3-yl)benzyl)-2-methyl-2-(5-methylpyrimidin-2-yl)-propanamide]
degradation of NEK7 across three different brain regions (NEK7 [1]): around 80%
Average percent NEK7/β-actin in brain, relative to vehicle (NEK7 [1]; Cerebellum): 18.2%
Average percent NEK7/β-actin in brain, relative to vehicle (NEK7 [1]; Frontal Cortex): 20.3%
Average percent NEK7/β-actin in brain, relative to vehicle (NEK7 [1]; Hippocampus): 21.3%
Caspase-1 activity Imax (Caspase-1 activity; 24 h pre-treatment, LPS + MSU 6 h, eight donors): 81%
IC50 (Caspase-1 activity; Homo sapiens, Macrophage, 24 h pre-treatment, LPS + MSU 6 h, eight donors): 1.6 nM
inhibition of NLRP3-driven activation of human macrophages (Caspase-1 activity; LPS/MSU stimulation): dose-dependent inhibition
concentration at 6 h ([2]; Day 1, 6 h post final dose): 5.4 ng/mL
concentration at 6 h ([2]; Day 5, 6 h post final dose): 7.5 ng/mL

CC(C)(C(=O)NCc1cc(Cl)c(C2CCC(=O)NC2=O)c(Cl)c1)c1ncc(C#N)cn1 (stereo not shown) [Compound 16, 2-(5-cyanopyrimidin-2-yl)-N-(3,5-dichloro-4-(2,6-dioxopiperidin-3-yl)benzyl)-2-methyl-propanamide]
degradation of NEK7 in spleen and PBMCs (NEK7 [3]): greater than 50%
